Source: patent US10702589B2, “Compositions and methods of treating neurological disorder and stress-induced conditions” (Ann and Robert H. Lurie Children's Hospital of Chicago, priority 2016, dated 2020)

System: AkrRE1/2 luciferase reporters
Assay: AkrRE1/2 luciferase reporter assay with mevalonate pathway metabolites in primary CGE and MGE cells
Assay type: cell-based, mouse
Conditions: FOH 0.1-100 μM, GGOH 0.01-100 μM, FIG. 2G-J
Excerpt: For all luciferase experiments, enhancers were cloned into the pGL3 promoter vector (Promega) using the KpnI and NheI restriction sites on the 5′ and 3′ sites, respectively. The Calb1 enhancers (site 1, site 2, and site 3), AkrR enhancers (site 1 and site 2), NPY enhancers (site 1 and site 2), and SST enhancer (site 1) were identified by MACS2 peak analysis of ChIP-seq (DNA sequences obtained from the UCSC genome browser). Primers were designed to PCR amplify enhancer sequences from C57BL/6J mouse genomic DNA into expression plasmids.
MGE and CGE tissues were dissected from E13.5 Swiss Webster embryos, dissociated in L15 media by pipetting several times, and spun through a cell strainer for single cell preparations. Briefly, cells were seeded at a density of 2.5×10^5 cells per cm^2 (Flandin et al. 2011). One day prior to seeding cells, 24-well plates were coated with poly-L-lysine (30 μg/mL; Sigma) and laminin (5 μg/mL; Sigma), while 96-well plates were coated with poly-L-lysine (3 μg/mL; Sigma) and laminin (5 μg/mL; Sigma). Initially, cells were seeded in neurobasal medium (DMEM/F-12 supplemented with L-glutamate, B-27 (Gibco), N2 supplement (Gibco), bovine pituitary extract (35 μg/mL; Life Technologies), mito+ serum extender (BD Biosciences), penicillin (100 U/mL; Gibco), streptomycin (100 μg/mL; Gibco), and glutamax (0.8 mM; Gibco)). […]

| Structure (SMILES) | effect on AkrRE1/2 luciferase reporters, normalized to buffer alone |
| --- | --- |
| CC(C)=CCCC(C)=CCCC(C)=CCO [FOH, farnesol] | dose-dependent, enhancer- and region-specific effects |
| CC(C)=CCC/C(C)=C/CC/C(C)=C/CC/C(C)=C/CO [GGOH, geranylgeraniol] | dose-dependent, enhancer- and region-specific effects |
